We go through 2 molecules from ChEMBL document CHEMBL1800021, “Antineoplastic activity of the thiazolo[5,4-b]quinoline derivative D3CLP in K-562 cells is mediated through effector caspases activation” (Eur J Med Chem, 2011).

The test system of experiment [1] is K562. The experiment can be described thus: Ratio of IC50 for human PMBC to IC50 for human K562 cells.
Experiment [2] deals with K562. Description: Induction of apoptosis in human K562 cells assessed as DNA fragmentation at 7.8 uM after 12 to 24 hrs by TUNEL assay. The experiment is classed as functional, cell-based.
The test system of experiment [3] is K562. Description: Induction of apoptosis in human K562 cells assessed as increase in effector caspases activity using Ac-DEVD-AMC as substrate after 3 to 24 hrs by fluorimetry. The format is functional, cell-based.
Experiment [4] deals with K562. Description: Induction of apoptosis in human K562 cells assessed as chromatin condensation at 7.8 uM after 12 to 24 hrs by TUNEL assay. The format is functional, cell-based.
Experiment [5] concerns K562. Description: Induction of apoptosis in human K562 cells assessed as subdiploid peak at 7.8 uM after 12 to 24 hrs by propidium iodide staining-based FACS analysis. The experiment is classed as functional, cell-based. On the technique in general: Flow cytometry measures light scatter and fluorescence of single cells or particles in a stream.
For experiment [6], the system named is K562. The experiment can be described thus: Induction of apoptosis in human K562 cells assessed as effector caspases activity using Ac-DEVD-AMC as substrate after 48 hrs by fluorimetry. The format is functional, cell-based.
The subject of experiment [7] is K562. The experiment can be described thus: Cytotoxicity against human K562 cells after 48 hrs by modified MTT assay. The format is functional, cell-based. Particulars: K562, 48 h. In general terms: Tetrazolium dyes change colour on reduction, which living cells bring about.
The subject of experiment [8] is K562. The experiment can be described thus: Cell cycle arrest in human K562 cells assessed as accumulation at G2/M phase at 7.8 uM after 6 hrs by propidium iodide staining-based FACS analysis. The format is functional.
Experiment [9] can be described thus: Cytotoxicity against human PMBC after 48 hrs by modified MTT assay.
In experiment [10] the test system is K562. The experiment can be described thus: Induction of cell cycle arrest in human K562 cells assessed as complete arrest at G2/M phase at 0.25 uM after 12 hrs by propidium iodide staining-based FACS analysis. The format is functional.
Experiment [11] deals with K562. Description: Induction of apoptosis in human K562 cells assessed as chromatin condensation at 0.25 uM after 24 to 48 hrs by TUNEL assay. The experiment is classed as functional, cell-based.
For experiment [12], the system named is K562. Description: Induction of cell cycle arrest in human K562 cells assessed as accumulation at G2/M phase at 0.25 uM after 6 hrs by propidium iodide staining-based FACS analysis. The experiment is classed as functional.
The test system of experiment [13] is K562. Description: Induction of apoptosis in human K562 cells assessed as appearance of apoptotic bodies at 0.25 uM after 24 to 48 hrs by TUNEL assay. The experiment is classed as functional, cell-based.

SMILES strings stand for the structures. Calls of active or inactive are those of the source. No cut-off for these calls is given here.

Consider `CCN(CC)CCCNc1nc2c(Nc3cccc(Cl)c3)c3ccccc3nc2s1`, for which the “Ratio IC50” value with K562 [1] is 4. Further, the result with K562 [2], in the experiment with K562 [3], in the experiment on K562 [4], in the experiment with K562 [5] and in the experiment on K562 [8] was Active. Moreover, the result with K562 [6] was inactive. The IC50 in the experiment on K562 [7] came out at 7.82 µM; in experiment [9] it was 28.7 µM.

For the molecule `CC(=O)O[C@H]1C(=O)[C@@]2(C)[C@H]([C@H](OC(=O)c3ccccc3)[C@]3(O)C[C@H](OC(=O)[C@H](O)[C@@H](NC(=O)c4ccccc4)c4ccccc4)C(C)=C1C3(C)C)[C@]1(OC(C)=O)CO[C@@H]1C[C@@H]2O`, the result in the experiment on K562 [10], in the experiment with K562 [11], in the experiment with K562 [12] and in the experiment with K562 [13] was Active.

The term IC50 denotes the concentration needed to halve the response being measured.
